Test results taken from patent US20100160438A1, “NOVEL USE OF A NUTRACEUTICAL COMPOSITION IN ANIMAL FEED” (priority 2006, published 2010).

Tests used:
[1] = tested on: ileo-rectal anastomosed piglets; test: ileal apparent digestibility of nitrogen, energy and amino acids in ileo-rectal anastomosed piglets; assay type: in vivo, Large White×Landrace×Piétrain piglets; settings: for ileal apparent lysine digestibility / ileal apparent threonine digestibility: mean ± σ
Protocol: Ten Large White×Landrace×Piétrain piglets were used. The animals were obtained from the GAEC Leclerc, F-68150 Ostheim and were 60 days old at the beginning of the experiment.
Each animal was subjected to an ileo-rectal anastomosis according to the techniques described by Laplace et al. (1994). After surgery piglets were housed individually in stainless-steel metabolic cages in an animal room under controlled temperature (22° C.), humidity (50%), ventilation (1100 m3/h) and lighting (12 hours light/12 hours darkness cycle). […] Meanwhile they were fed ad libitum a vegetal based diet for piglets and had free access to tap water.
During the experimental period, piglets were fed each and alternatively the vegetal based diet supplemented or not with 0.5% benzoic acid.
An indigestible tracer, chromium oxide, was added at a concentration of 0.4% to all the diets in order to measure ileal apparent digestibility.
The experience was composed of 2 periods of 12 days each divided in 10 adaptation days and in 2 ileal content sampling days.
Each animal was fed alternatively with each diet, so that each diet was tested 10 times.
For the digestibility estimations, samples of ileal content were collected daily, during the 2 sampling days, from 8 AM to 3 PM, as soon as they were produced. Immediately after each sampling, the collected contents were weighed and frozen at −80° C. All the daily samples from the same piglet were bulked. Before analysis the samples were freeze dried and grounded to a fine powder. A total of […] samples were obtained for each diet.
The dry matter contents of the freeze-dried samples were determined after drying overnight at 105° C., 20 g of the diets and 15 g of the ileal samples, according to the standard Association of Official Analytical Chemists (AOAC) procedure (1990).
The diets and ileal samples chromium oxide levels were determined by inductively coupled plasma-atomic emission spectrometry (ICP) after mineralization at 350° C. during 20 min with oxidant reagent.
Total energy levels were determined on the freeze-dried diets and ileal contents using a calorimeter IKA C7000.
Total nitrogen concentrations were determined on the freeze-dried diets and ileal contents using a nitrogen analyzer LECO FP-428.
Total amino acids were determined after an acidic hydrolysis on the freeze-dried diets and intestinal contents. Tryptophan analysis was omitted. Cys and Met were analyzed as cysteic acid and methionine sulfone after oxidation with formic acid and hydrogen peroxide followed by an acidic hydrolysis at 110° C. with 6 N HCl. All the other amino acids were analyzed after an acidic hydrolysis at 110° C. with 6 N HCl.
Individual amino acid concentrations were measured after derivation using Waters AccQ.Fluor reagent and quantified by reversed-phase HPLC by fluorescence detection after elution on a Pico.Tag C18 column.
Correcting with the dry matter, the chromium oxide and the diet tested parameter concentrations, all the tested parameter levels of the freeze-dried ileal contents were expressed in % apparent digestibility using the following formula:
[formula] • Ci=parameter concentration (% dry matter) in the ileal content • Cd=parameter concentration (% dry matter) in the diet • Mi=chromium oxide concentration (% dry matter) in the ileal content • Md=chromium oxide concentration (% dry matter) in the diet
For each test group, statistic analysis of the data involved the calculation of the mean and standard deviation of the mean as well as an analysis of variance followed by Student's “t” test to assess the significance of group differences between group A and benzoic acid supplemented group B for a probability of 10% for the amino acids and 5% for nitrogen and energy.

piglets = test: animal health status controlled daily during the feeding trial; assay type: in vivo, Large White×Landrace×Piétrain piglets; settings: piglets fed alternately diet with or without 0.5% benzoic acid, 2 periods of 12 days
Excerpt: The animal health status was controlled daily.
At the beginning of the study all the piglets had recovered from the anesthesia and the surgery. […] All the feedings and all the sampling could be achieved.

[2] = 0.5% benzoic acid in diet vs non-supplemented diet, statistically non-significant (p<0.10)
[3] = 0.5% benzoic acid in diet vs non-supplemented diet, statistically significant (p<0.05)
[4] = 0.5% benzoic acid in diet vs non-supplemented diet, statistically significant (p<0.10)
[5] = piglets, Benzoic acid 0.5% in diet
[6] = piglets, diet supplemented with 0.5% benzoic acid, mean ± SD
[7] = piglets, diet supplemented with 0.5% benzoic acid
[8] = piglets, diet supplemented with 0.5% benzoic acid, listed as Benzoic acid

## O=C(O)c1ccccc1 [benzoic acid]
[1]; [2]
  increase of ileal apparent sulfured amino acids digestibility compared to the control group: 2.9%
  increase of ileal apparent threonine digestibility compared to the control group: 2.7%
[1]; [3]
  increase of ileal apparent energy digestibility compared to the control group: 4.4%
  increase of ileal apparent total nitrogen digestibility compared to the control group: 5.3%
[1]; [4]
  increase of ileal apparent branched chain amino acids digestibility compared to the control group: 2.9%
  increase of ileal apparent essential amino acids digestibility compared to the control group: 2.9%
  increase of ileal apparent lysine digestibility compared to the control group: 3.5%
  increase of ileal apparent total amino acids digestibility compared to the control group: 2.9%
[1]; [5]
  Mean digestibility ± σ, Ala (ileal apparent): 75.3 ± 3.7%
  Mean digestibility ± σ, Arg (ileal apparent): 87.0 ± 1.8%
  Mean digestibility ± σ, Asp + Asn (ileal apparent): 79.1 ± 3.2%
  Mean digestibility ± σ, Cys (ileal apparent): 79.7 ± 4.4%
  Mean digestibility ± σ, Glu + Gln (ileal apparent): 86.7 ± 2.1%
  Mean digestibility ± σ, Gly (ileal apparent): 75.1 ± 4.4%
  Mean digestibility ± σ, His (ileal apparent): 86.4 ± 2.5%
  Mean digestibility ± σ, Hyp (ileal apparent): 41.4 ± 13.4%
  Mean digestibility ± σ, Ile (ileal apparent): 81.5 ± 3.6%
  Mean digestibility ± σ, Leu (ileal apparent): 84.5 ± 2.4%
  Mean digestibility ± σ, Met (ileal apparent): 80.7 ± 3.5%
  Mean digestibility ± σ, Phe (ileal apparent): 84.5 ± 2.3%
  Mean digestibility ± σ, Pro (ileal apparent): 85.8 ± 2.4%
  Mean digestibility ± σ, Ser (ileal apparent): 82.6 ± 2.9%
  Mean digestibility ± σ, Tyr (ileal apparent): 80.8 ± 2.8%
  Mean digestibility ± σ, Val (ileal apparent): 79.5 ± 3.6%
[1]; [6]
  ileal apparent branched chain amino acids digestibility: 82.7±2.8%
  ileal apparent energy digestibility: 72.6±4.7%
  ileal apparent essential amino acids digestibility: 82.7±2.6%
  ileal apparent sulfured amino acids digestibility: 80.1±3.5%
  ileal apparent total amino acids digestibility: 82.0±2.7%
  ileal apparent total nitrogen digestibility: 77.7±3.1%
[1]; [7]
  ileal apparent lysine digestibility: 82.3±2.8%
  ileal apparent threonine digestibility: 78.0±3.9%
[1]; [8]
  ileal apparent lysine digestibility: 82.3 ± 2.8%
  ileal apparent threonine digestibility: 78.0 ± 3.9%
piglets
  symptoms of illness or toxicosis: None of the animals showed during the experimental period, any symptoms of illness or toxicosis
